Values quoted from earlier work as cited in patent US12133844B2, “Methods of treating epithelioid cell tumors” (Abraxis BioScience, LLC, priority 2015, dated 2024).
Like-named read-outs stand apart in the source and are kept apart here. Blank lines part the entries; values can stand above or below the compound they belong to.

Experiments:
[1] = in vivo
HSA = HSA (Homo sapiens, UniProt P02768)
mTORC1 [2] = target: T1, mTORC1 (Homo sapiens, UniProt P42345); set-up: endogenous in cells; host or cells: HUVEC; details: HUVEC cells, 10 nM-1 μM
mTORC1 [3] = target: T1, mTORC1; set-up: endogenous in cells; details: HEK293 cells, 0.2 μM-5 μM
mTORC1 [4] = target: T1, mTORC1; set-up: endogenous in cells; host or cells: HUVEC

Chain of HSA (P02768 25-609): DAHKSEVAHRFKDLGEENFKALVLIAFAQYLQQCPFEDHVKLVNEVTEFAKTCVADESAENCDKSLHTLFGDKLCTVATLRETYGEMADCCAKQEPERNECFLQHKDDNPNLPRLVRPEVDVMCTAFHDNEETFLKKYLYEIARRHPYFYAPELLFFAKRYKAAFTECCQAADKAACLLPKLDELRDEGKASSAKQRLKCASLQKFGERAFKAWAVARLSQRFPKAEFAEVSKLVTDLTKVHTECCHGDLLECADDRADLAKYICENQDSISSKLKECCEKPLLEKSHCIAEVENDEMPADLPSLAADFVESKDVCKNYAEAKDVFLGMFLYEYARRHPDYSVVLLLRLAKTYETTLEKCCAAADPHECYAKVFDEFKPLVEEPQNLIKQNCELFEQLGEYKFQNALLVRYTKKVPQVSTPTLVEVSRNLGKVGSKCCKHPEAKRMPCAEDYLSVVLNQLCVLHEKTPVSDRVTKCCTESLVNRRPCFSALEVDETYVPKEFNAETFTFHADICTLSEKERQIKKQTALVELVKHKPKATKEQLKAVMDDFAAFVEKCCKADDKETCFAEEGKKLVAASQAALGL

inhibition of mTORC1 (mTORC1 [2]): inhibits mTORC1
inhibition of mTORC1 (mTORC1 [3]): inhibits mTORC1
Compound: WYE-354

binding to human plasma proteins (human plasma proteins): shown to bind
Compound: CC(=O)O[C@@]12CO[C@@H]1C[C@H](O)[C@@]1(C)C(=O)[C@H](O)C3=C(C)[C@@H](OC(=O)[C@H](O)[C@@H](NC(=O)OC(C)(C)C)c4ccccc4)C[C@@](O)([C@@H](OC(=O)c4ccccc4)[C@H]21)C3(C)C [docetaxel]

The remaining lines, values behind:

Compound: COc1ccc(COc2cc3oc(=O)c4cc(C(C)O)ccc4c3cc2OC)cc1 (stereo not shown) [Palomid 529]
brain penetration [1]: good brain penetration
affinity for ABCB1/ABCG2 (ABCB1/ABCG2): lacks affinity

Compound: CO[C@H]1C[C@@H]2CC[C@@H](C)[C@@](O)(O2)C(=O)C(=O)N2CCCC[C@H]2C(=O)O[C@H]([C@H](C)C[C@@H]2CC[C@@H](O)[C@H](OC)C2)CC(=O)[C@H](C)/C=C(\C)[C@@H](O)[C@@H](OC)C(=O)[C@H](C)C[C@H](C)/C=C/C=C/C=C/1C [Sirolimus, sirolimus]
binding to HSA (HSA): shown to bind HSA

Compound: COc1ccc(-c2ccc3c(N4CCOCC4)nc(N4C[C@@H](C)O[C@@H](C)C4)nc3n2)cc1CO [KU-0063794]
inhibition of phosphorylation of mTORC1 at Ser2448 (mTORC1 [4]): dose-dependent and time-dependent
